The results in this text go back to patent publication US10758609B2, “Cross-reactive T-cell epitopes of HIV, SIV, and FIV for vaccines in humans and cats” (priority 2015, dated 2020).

The test system of assay [1] is feline CD3^+CD4^+ T cells. As to the kind of experiment: CFSE-based feline CD3+CD4+ T-cell proliferation. Also noted: species or system cat. The settings on record: FIV-vaccinated cats; for CD4, frequency of responders: FIV epitope peptide; for CDC4^+ T (T-cell proliferation), frequency of responders: FIV peptides. The protocol: Carboxyfluorescein diacetate succinimide ester (CFSE)-proliferation was performed according to the manufacturer's protocol (Invitrogen, Grand Island, N.Y.) and processed using a previously described modification. The modification consisted of 2.5×10^5 CFSE-labeled feline PBMC stimulated for 5 days (37° C., 5% CO2) with 4 μg/mL peptide in culture media (RPMI medium 25 µg/mL gentamycin, and 10% heat-inactivated fetal bovine serum (FBS)). Peptide pools consisted of 3-5 overlapping peptides of 4 μg/mL each. The antibodies used for flow cytometry based proliferation analysis consisted of murine anti-feline (Fe) CD3 monoclonal antibody (MAb clone kindly provided by Drs. Yorihiro Nishimura and Takayuki Miyazawa; described in [32]) combined with secondary goat anti-mouse IgG3-APC/CY7 MAb (SouthernBiotech, Birmingham, Ala.; Cat#1100-19); and murine anti-FeCD4-PE MAb (SouthernBiotech, Cat#8130-09); and murine anti-FeCD8 MAb (MAb clone kindly provided by Dr. Nazareth Gengozian, described in [33]) with secondary goat anti-mouse IgG2a-PE/CY7 (Southern Biotech, Cat#1080-17). The murine anti-B220-APC MAb for detecting feline B cells (SouthernBiotech, Cat#1665-11) and previously described MAbs for CFSE were used for FACS phenotyping. Both FACS phenotyping and CFSE-proliferation analyses were performed with BD LSRII and FACSDiva™ Software (BD Biosciences, San Jose, Calif.). The final value for each sample was derived after subtraction of the average value of the media controls using a positive threshold of ≥1 CFSE^low.
(§1) Concurrently, the overlapping peptide pools of FIV structural/enzyme proteins were used to stimulate PBMC and T cells from FIV-vaccinated cats. These cats were vaccinated with prototype dual-subtype FIV vaccine which was the prototype to our commercial FIV vaccine (Coleman et al., 2014). The feline assays (Example 1) equivalent to those of human assays (Sanou et al., 2013; Roff et al., 2015) were used except for ICS analysis. In place of ICS for cytolysin/cytotoxins, IL2 ELISpot analysis was performed. […] The results for FIV-vaccinated cats included IFNγ and IL2 productions and CD3^+CD4+ and CD3^+CD8^+ T-cell proliferation (Table 9, the second set of results).
Carboxyfluorescein diacetate succinimide ester (CFSE)-proliferation analysis was according to the manufacturer's protocol (Invitrogen-Fisher, Carlsbad, Calif.) and processed as previously described (Roff et al. (2015)) using the following modifications: anti-feline CD3 antibody ((clone NZM1), a generous gift from T. Miyazawa (Univ. of Tokyo, Japan)) in combination with APC-conjugated anti-mouse IgG3 (Southern Biotech, Birmingham, Ala.), PE-conjugated anti-feline CD4 antibody (Southern Biotech), and anti-feline CD8 antibody (gift from N. Gengozian, University of Tennessee (Gengozian et al. (1997))) in combination with PE/Cy7-conjugated anti-mouse IgG2b (Southern Biotech) to detect the proliferation of feline CD3^+CD4+ T cells and feline […]. All results shown in the figures (FIGS. 7A-1, 7B-1, 7A-2, 7B-2, 7A-3, 7B-3) are after subtracting the average value of each results from all control cats. The threshold of CFSE proliferation is ≥0.5 CFSE^low. […]

For assay [2], the system named is PBMC from FIV-vaccinated cats. Nature of the assay: Feline IL2 ELISpot of PBMC from vaccinated cats. Type of assay: cell-based, cat. On the procedure:
IFNγ and IL2 ELISpot analyses were performed using feline IFNγ ELISpot and feline IL2 ELISpot kits (R&D Systems, Cat# SEL764 and SEL1890) as described. The threshold is defined as ≥50 spot forming units (SFU) per 1×10^6 PBMC when counted with MVS ELISpot Reader (MVS Pacific, LLC). Each result is an average of the duplicate samples after subtraction of the average value of the media controls.
as §1
The feline IFNγ and L2 ELISpot analyses of PBMC to FIV MAPs and peptides were performed as previously described (Abbott et al. (2012)) using feline IFNγ modular kit (R&D Systems, Minneapolis, Minn.) and feline IL2 modular kit (R&D Systems). All results shown in the figures (FIGS. 8A-1, 8B-1, 8A-2, 8B-2, 8A-3, 8B-3) are after subtracting the average value of the results from all control cats.
The second parameter evaluated was the ability of the peripheral blood mononuclear cells (PBMC) from vaccinated and control cats to produce IL2 and interferon-γ (IFNγ) proteins in responses to FIV MAPs and peptides (FIGS. 8A-1, 8A-2, 8A-3, 8B-1, 8B-2, 8B-3) using feline IL2 and IFNγ ELISpot assays (Aranyos et al. (2016); Abbott et al. (2012)). IL2 enhances the proliferation of FIV-specific CD4^+ T cells and CD8^+ T cells. IFNγ is known enhance the FIV-specific CTL activities in vaccinated cats (Abbas et al. (2015)).

Consider LLLILCLPTLVDCIRN [FTM8(20)], for which the “CD4, frequency of responders” value in assay [1] is reported as “++ (26%-40% (++))”. Besides, in assay [1], the “CDC4^+ T (T-cell proliferation), frequency of responders” value (shortened to “CDC4^+ T (T-cell proliferation)”) is on record as “++ (25.1%-40% (++))”. For the same sequence, the “IL2, frequency of responders” value in assay [2] (FIV epitope peptide) is “— (0%-1.4% (—))”; in assay [2] (FIV peptides) it was “— (0%-1.4%(—))”.
For KFLYTAFAMQELR [FTM4-3] the same measures were “++ (26%-40% (++))”, “++ (25.1%-40% (++))”, “++++ (>54% (++++))” and “++++ (>54% (++++))”.
The like results for WRMLIDFRVLNKL [FRT3-4] were, in that order, “+ (12.5%-25% (+))”, “+ (12.5%-25% (+))”, “++ (26%-40% (++))” and “++ (25.1%-40% (++))”.
The like results for PTDMATLIMAAPGCA [Fp4-3] were, in that order, “++++ (>54% (++++))”, “++++ (>54% (++++))”, “+ (12.5%-25% (+))” and “+ (12.5%-25% (+))”.
KKKSGKWRMLIDFRV [FRT3-3]: in assay [1], the “CD4, frequency of responders” value is listed as “++ (26%-40% (++))” and the “CDC4^+ T (T-cell proliferation)” value is reported as “++ (25.1%-40% (++))”. In addition, in assay [2] (FIV epitope peptide), the “IL2, frequency of responders” value was “++ (26%-40% (++))”. The “IL2, frequency of responders” value in assay [2] (FIV peptides) was “++ (25.1%-40% (++))”.
Consider AGLRQSLEQYQVVKQ [FSU4], for which, in assay [1], the “CD4, frequency of responders” value is recorded as “+++ (41%-54% (+++))” and the “CDC4^+ T (T-cell proliferation)” value was “+++ (40.1%-54% (+++))”. Besides, the “IL2, frequency of responders” value in assay [2] (FIV epitope peptide) was “— (0%-1.4% (—))”. Further, the “IL2, frequency of responders” value in assay [2] (FIV peptides) is “— (0%-1.4%(—))”.
